From the kinase profiling compilation of Christmann-Franck et al. (2016)

Columns and labels:
Test in all cases: radiometric filter-binding kinase assay
ABL1 (human) = ABL1 (human) (UniProt P00519)
CDK9 CCNT1 (human) = CDK9 CCNT1 (human) (UniProt P50750+O60563)
CSNK1G2 (human) = CSNK1G2 (human) (UniProt P78368)
DDR2 (human) = DDR2 (human) (UniProt Q16832)
EIF2AK3 (human) = EIF2AK3 (human) (UniProt Q9NZJ5)
GSK3B (human) = GSK3B (human) (UniProt P49841)
IRAK1 (human) = IRAK1 (human) (UniProt P51617)
MAP4K3 (human) = MAP4K3 (human) (UniProt Q8IVH8)
Chain of MAP4K3 (human) (Q8IVH8 whole entry, looked up): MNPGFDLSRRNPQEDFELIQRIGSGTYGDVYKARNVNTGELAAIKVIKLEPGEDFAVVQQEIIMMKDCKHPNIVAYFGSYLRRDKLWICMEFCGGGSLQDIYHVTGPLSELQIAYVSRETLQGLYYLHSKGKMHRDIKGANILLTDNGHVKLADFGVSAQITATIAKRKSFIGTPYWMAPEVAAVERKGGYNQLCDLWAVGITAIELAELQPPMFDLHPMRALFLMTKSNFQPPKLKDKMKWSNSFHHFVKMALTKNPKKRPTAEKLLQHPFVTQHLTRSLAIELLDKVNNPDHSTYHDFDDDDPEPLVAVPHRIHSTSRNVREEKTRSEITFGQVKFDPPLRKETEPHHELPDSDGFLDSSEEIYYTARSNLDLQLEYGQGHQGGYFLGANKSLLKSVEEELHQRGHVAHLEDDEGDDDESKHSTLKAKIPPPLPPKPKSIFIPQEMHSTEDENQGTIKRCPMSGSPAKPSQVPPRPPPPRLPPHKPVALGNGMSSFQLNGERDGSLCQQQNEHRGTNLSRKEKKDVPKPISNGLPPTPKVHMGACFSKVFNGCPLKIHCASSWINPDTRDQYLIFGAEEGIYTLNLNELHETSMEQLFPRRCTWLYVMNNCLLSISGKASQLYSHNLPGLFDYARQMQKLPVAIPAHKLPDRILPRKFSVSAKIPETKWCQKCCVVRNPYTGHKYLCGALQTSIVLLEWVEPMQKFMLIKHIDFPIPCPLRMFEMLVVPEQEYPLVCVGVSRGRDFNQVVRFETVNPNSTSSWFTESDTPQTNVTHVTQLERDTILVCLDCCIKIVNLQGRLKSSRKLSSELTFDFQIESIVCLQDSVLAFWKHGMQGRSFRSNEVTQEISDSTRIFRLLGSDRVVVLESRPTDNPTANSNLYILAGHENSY

MAP4K5 (human) = MAP4K5 (human) (UniProt Q9Y4K4)
MAPK7 (human) = MAPK7 (human) (UniProt Q13164)
[1] = tested on: OXSR1 (human), O95747 [T185E]
PDGFRA (human) = PDGFRA (human) (UniProt P16234)
[2] = molecular target: PRKAA1 PRKAB2 PRKAG1 (human) (UniProt O43741+Q13131+P54619)
PRKCG (human) = PRKCG (human) (UniProt P05129)
PTK6 (human) = PTK6 (human) (UniProt Q13882)
SIK2 (human) = SIK2 (human) (UniProt Q9H0K1)
Chain of SIK2 (human) (Q9H0K1 whole entry, looked up): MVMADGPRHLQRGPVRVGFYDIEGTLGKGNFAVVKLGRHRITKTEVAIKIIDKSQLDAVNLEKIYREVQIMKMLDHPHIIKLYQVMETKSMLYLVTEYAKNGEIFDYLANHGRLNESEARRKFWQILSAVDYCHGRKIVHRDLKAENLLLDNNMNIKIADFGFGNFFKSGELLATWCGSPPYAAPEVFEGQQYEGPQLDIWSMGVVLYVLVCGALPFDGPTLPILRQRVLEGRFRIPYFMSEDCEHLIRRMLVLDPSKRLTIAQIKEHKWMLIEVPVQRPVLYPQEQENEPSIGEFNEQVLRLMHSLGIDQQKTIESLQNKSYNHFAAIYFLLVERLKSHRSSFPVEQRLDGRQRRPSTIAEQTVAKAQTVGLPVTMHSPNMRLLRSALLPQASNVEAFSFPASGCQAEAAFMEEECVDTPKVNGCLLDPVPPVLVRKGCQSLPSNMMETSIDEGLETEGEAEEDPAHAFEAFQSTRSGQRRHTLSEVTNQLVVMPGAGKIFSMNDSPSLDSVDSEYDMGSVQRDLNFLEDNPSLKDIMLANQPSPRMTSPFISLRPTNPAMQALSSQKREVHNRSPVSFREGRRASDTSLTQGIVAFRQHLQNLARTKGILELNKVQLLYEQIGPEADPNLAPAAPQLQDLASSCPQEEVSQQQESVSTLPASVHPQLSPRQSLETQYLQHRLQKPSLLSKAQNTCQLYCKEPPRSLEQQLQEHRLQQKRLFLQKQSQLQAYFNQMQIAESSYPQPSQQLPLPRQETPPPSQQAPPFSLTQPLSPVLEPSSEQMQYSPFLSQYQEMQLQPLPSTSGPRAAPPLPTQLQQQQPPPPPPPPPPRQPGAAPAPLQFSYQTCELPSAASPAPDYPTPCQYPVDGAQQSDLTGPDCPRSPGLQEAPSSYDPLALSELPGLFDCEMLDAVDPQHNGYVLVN

SIK3 (human) = SIK3 (human) (UniProt Q9Y2K2)
SRPK1 (human) = SRPK1 (human) (UniProt Q96SB4)
STK16 (human) = STK16 (human) (UniProt O75716)
Chain of STK16 (human) (O75716 whole entry, looked up): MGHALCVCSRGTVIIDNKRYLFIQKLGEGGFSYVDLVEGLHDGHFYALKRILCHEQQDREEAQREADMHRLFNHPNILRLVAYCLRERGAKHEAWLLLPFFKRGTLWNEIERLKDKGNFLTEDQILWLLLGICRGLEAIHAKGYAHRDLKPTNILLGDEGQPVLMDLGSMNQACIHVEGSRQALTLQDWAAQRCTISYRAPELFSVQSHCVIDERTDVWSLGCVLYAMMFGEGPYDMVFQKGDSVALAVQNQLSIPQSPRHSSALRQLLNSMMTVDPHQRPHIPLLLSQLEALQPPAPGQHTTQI

STK24 (human) = STK24 (human) (UniProt Q9Y6E0)
STK33 (human) = STK33 (human) (UniProt Q9BYT3)
TEK (human) = TEK (human) (UniProt Q02763)
Chain of TEK (human) (Q02763 whole entry, looked up): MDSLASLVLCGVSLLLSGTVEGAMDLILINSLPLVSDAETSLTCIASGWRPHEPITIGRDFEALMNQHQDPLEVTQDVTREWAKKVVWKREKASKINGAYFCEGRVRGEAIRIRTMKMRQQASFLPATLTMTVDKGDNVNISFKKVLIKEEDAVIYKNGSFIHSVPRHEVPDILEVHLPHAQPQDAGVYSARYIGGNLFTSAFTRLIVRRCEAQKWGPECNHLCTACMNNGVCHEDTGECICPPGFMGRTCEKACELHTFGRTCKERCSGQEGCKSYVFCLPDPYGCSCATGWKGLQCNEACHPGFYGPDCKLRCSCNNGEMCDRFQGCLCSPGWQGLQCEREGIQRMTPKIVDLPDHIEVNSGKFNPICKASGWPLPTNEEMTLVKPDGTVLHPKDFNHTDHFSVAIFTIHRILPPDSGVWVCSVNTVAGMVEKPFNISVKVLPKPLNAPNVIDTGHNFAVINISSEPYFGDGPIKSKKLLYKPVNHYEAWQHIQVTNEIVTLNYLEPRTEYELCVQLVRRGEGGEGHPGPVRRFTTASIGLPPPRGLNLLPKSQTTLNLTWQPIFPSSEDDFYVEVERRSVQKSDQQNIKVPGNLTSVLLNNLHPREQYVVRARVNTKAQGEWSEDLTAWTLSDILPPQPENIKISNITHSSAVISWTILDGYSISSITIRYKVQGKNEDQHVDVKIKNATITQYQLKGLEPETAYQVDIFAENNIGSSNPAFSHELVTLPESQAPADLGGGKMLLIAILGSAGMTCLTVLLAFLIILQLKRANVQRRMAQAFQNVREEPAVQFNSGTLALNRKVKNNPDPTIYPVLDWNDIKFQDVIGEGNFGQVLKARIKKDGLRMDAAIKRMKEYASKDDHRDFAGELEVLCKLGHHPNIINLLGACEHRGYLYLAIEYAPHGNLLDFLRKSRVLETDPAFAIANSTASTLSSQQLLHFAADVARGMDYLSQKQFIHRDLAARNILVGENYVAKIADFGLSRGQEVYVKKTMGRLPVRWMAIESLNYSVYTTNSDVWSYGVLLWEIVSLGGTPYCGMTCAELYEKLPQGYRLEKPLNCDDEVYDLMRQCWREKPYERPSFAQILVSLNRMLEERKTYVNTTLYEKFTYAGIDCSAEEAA

TESK1 (human) = TESK1 (human) (UniProt Q15569)
[3] = tested on: TGFBR1 (human), P36897 [T204D]
TLK1 (human) = TLK1 (human) (UniProt Q9UKI8)
TSSK1B (human) = TSSK1B (human) (UniProt Q9BXA7)
Chain of TSSK1B (human) (Q9BXA7 whole entry, looked up): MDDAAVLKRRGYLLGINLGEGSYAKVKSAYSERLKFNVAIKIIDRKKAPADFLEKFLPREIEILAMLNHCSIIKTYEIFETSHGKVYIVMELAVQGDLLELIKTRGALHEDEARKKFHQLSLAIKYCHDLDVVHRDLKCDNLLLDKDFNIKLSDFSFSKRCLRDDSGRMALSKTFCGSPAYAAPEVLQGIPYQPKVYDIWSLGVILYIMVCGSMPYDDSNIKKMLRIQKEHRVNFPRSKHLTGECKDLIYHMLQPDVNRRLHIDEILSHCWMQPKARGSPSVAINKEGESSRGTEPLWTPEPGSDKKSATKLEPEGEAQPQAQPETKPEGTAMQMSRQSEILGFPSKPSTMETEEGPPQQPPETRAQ

TTBK1 (human) = TTBK1 (human) (UniProt Q5TCY1)
TTBK2 (human) = TTBK2 (human) (UniProt Q6IQ55)
ULK1 (human) = ULK1 (human) (UniProt O75385)
ULK2 (human) = ULK2 (human) (UniProt Q8IYT8)
Chain of ULK2 (human) (Q8IYT8 whole entry, looked up): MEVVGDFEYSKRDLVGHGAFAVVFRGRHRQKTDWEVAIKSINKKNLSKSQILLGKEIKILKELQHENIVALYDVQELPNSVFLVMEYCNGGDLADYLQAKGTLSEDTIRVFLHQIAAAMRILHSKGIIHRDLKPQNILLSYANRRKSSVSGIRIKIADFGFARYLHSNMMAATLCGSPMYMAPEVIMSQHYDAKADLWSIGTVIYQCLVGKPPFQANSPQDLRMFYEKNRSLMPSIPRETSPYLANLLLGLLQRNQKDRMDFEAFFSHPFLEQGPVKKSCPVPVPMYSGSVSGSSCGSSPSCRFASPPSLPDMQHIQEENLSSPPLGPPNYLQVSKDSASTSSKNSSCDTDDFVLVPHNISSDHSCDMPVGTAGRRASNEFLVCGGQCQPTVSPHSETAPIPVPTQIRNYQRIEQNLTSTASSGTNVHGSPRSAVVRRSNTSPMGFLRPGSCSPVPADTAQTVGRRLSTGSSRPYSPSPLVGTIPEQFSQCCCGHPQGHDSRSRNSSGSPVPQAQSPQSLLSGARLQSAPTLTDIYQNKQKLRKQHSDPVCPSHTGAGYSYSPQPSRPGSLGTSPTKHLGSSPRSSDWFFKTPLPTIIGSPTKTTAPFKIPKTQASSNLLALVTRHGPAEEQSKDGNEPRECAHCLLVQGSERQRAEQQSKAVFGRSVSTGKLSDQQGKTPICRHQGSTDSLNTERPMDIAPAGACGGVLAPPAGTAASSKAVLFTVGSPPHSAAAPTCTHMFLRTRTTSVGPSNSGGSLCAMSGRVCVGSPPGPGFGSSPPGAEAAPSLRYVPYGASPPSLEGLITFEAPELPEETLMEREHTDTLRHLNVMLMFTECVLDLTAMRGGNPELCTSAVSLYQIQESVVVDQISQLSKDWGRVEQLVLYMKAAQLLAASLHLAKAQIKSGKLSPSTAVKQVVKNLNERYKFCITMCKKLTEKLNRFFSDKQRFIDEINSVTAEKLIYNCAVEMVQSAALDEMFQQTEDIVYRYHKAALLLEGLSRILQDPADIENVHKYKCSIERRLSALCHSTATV

WNK1 (human) = WNK1 (human) (UniProt Q9H4A3)
ZAP70 (human) = ZAP70 (human) (UniProt P43403)
NEK7 (human) = NEK7 (human) (UniProt Q8TDX7); settings: compound 1.0 µM

Chain of CSNK1G2 (human) (P78368 whole entry, looked up): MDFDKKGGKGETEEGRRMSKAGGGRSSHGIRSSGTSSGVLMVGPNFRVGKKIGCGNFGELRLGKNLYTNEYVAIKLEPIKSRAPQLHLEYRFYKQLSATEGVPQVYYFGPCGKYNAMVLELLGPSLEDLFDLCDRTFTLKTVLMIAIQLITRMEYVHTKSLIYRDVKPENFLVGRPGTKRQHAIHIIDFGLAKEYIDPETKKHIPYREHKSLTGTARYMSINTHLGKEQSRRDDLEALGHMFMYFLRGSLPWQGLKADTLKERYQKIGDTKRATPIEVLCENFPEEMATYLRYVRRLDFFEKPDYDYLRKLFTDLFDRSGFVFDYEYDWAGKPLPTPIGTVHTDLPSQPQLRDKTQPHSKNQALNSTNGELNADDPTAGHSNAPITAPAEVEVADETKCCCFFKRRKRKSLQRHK

**Q.** What does the source list for COC(=O)/C=C/C(=O)OC?
**A.** residual activity (ABL1 (human); compound 10.0 µM): 98%; residual activity (ABL1 (human); compound 100.0 µM): 105%; residual activity (ABL1 (human); compound 1000.0 µM): 95%; residual activity (CDK9 CCNT1 (human); compound 10.0 µM): 91%; residual activity (CDK9 CCNT1 (human); compound 100.0 µM): 98%; residual activity (CDK9 CCNT1 (human); compound 1000.0 µM): 103%; residual activity (CSNK1G2 (human); compound 10.0 µM): 92%; residual activity (CSNK1G2 (human); compound 100.0 µM): 101%; residual activity (CSNK1G2 (human); compound 1000.0 µM): 101%; residual activity (DDR2 (human); compound 10.0 µM): 103%; residual activity (DDR2 (human); compound 100.0 µM): 100%; residual activity (EIF2AK3 (human); compound 10.0 µM): 95%; residual activity (EIF2AK3 (human); compound 100.0 µM): 107%; residual activity (GSK3B (human); compound 10.0 µM): 92%; residual activity (GSK3B (human); compound 1000.0 µM): 108%; residual activity (IRAK1 (human); compound 10.0 µM): 101%; residual activity (IRAK1 (human); compound 100.0 µM): 100%; residual activity (IRAK1 (human); compound 1000.0 µM): 97%; residual activity (MAP4K3 (human); compound 10.0 µM): 92%; residual activity (MAP4K3 (human); compound 100.0 µM): 81%; residual activity (MAP4K3 (human); compound 1000.0 µM): 85%; residual activity (MAP4K5 (human); compound 10.0 µM): 91%; residual activity (MAP4K5 (human); compound 100.0 µM): 87%; residual activity (MAPK7 (human); compound 10.0 µM): 88%; residual activity (MAPK7 (human); compound 100.0 µM): 94%; residual activity (MAPK7 (human); compound 1000.0 µM): 97%; residual activity ([1]; compound 10.0 µM): 96%; residual activity ([1]; compound 100.0 µM): 107%; residual activity ([1]; compound 1000.0 µM): 116%; residual activity (PDGFRA (human); compound 10.0 µM): 101%; residual activity (PDGFRA (human); compound 100.0 µM): 103%; residual activity (PDGFRA (human); compound 1000.0 µM): 104%; residual activity ([2]; compound 10.0 µM): 87%; residual activity ([2]; compound 100.0 µM): 95%; residual activity ([2]; compound 1000.0 µM): 102%; residual activity (PRKCG (human); compound 10.0 µM): 106%; residual activity (PRKCG (human); compound 100.0 µM): 113%; residual activity (PRKCG (human); compound 1000.0 µM): 114%; residual activity (PTK6 (human); compound 10.0 µM): 102%; residual activity (PTK6 (human); compound 100.0 µM): 112%; residual activity (PTK6 (human); compound 1000.0 µM): 110%; residual activity (SIK2 (human); compound 10.0 µM): 82%; residual activity (SIK2 (human); compound 100.0 µM): 94%; residual activity (SIK2 (human); compound 1000.0 µM): 103%; residual activity (SIK3 (human); compound 10.0 µM): 98%; residual activity (SIK3 (human); compound 1000.0 µM): 110%; residual activity (SRPK1 (human); compound 10.0 µM): 91%; residual activity (SRPK1 (human); compound 100.0 µM): 101%; residual activity (SRPK1 (human); compound 1000.0 µM): 103%; residual activity (STK16 (human); compound 10.0 µM): 114%; residual activity (STK16 (human); compound 100.0 µM): 116%; residual activity (STK16 (human); compound 1000.0 µM): 109%; residual activity (STK24 (human); compound 100.0 µM): 104%; residual activity (STK24 (human); compound 1000.0 µM): 112%; residual activity (STK33 (human); compound 10.0 µM): 93%; residual activity (STK33 (human); compound 100.0 µM): 99%; residual activity (STK33 (human); compound 1000.0 µM): 102%; residual activity (TEK (human); compound 10.0 µM): 92%; residual activity (TEK (human); compound 100.0 µM): 100%; residual activity (TEK (human); compound 1000.0 µM): 99%; residual activity (TESK1 (human); compound 10.0 µM): 84%; residual activity (TESK1 (human); compound 100.0 µM): 89%; residual activity (TESK1 (human); compound 1000.0 µM): 109%; residual activity ([3]; compound 10.0 µM): 93%; residual activity ([3]; compound 1000.0 µM): 95%; residual activity (TLK1 (human); compound 10.0 µM): 103%; residual activity (TLK1 (human); compound 100.0 µM): 117%; residual activity (TLK1 (human); compound 1000.0 µM): 110%; residual activity (TSSK1B (human); compound 10.0 µM): 73%; residual activity (TSSK1B (human); compound 100.0 µM): 85%; residual activity (TSSK1B (human); compound 1000.0 µM): 80%; residual activity (TTBK1 (human); compound 10.0 µM): 88%; residual activity (TTBK1 (human); compound 100.0 µM): 101%; residual activity (TTBK2 (human); compound 10.0 µM): 96%; residual activity (TTBK2 (human); compound 100.0 µM): 99%; residual activity (TTBK2 (human); compound 1000.0 µM): 96%; residual activity (ULK1 (human); compound 10.0 µM): 97%; residual activity (ULK1 (human); compound 100.0 µM): 99%; residual activity (ULK1 (human); compound 1000.0 µM): 103%; residual activity (ULK2 (human); compound 10.0 µM): 106%; residual activity (ULK2 (human); compound 100.0 µM): 109%; residual activity (ULK2 (human); compound 1000.0 µM): 109%; residual activity (WNK1 (human); compound 10.0 µM): 109%; residual activity (WNK1 (human); compound 100.0 µM): 104%; residual activity (WNK1 (human); compound 1000.0 µM): 114%; residual activity (ZAP70 (human); compound 10.0 µM): 116%; residual activity (ZAP70 (human); compound 100.0 µM): 116%; residual activity (ZAP70 (human); compound 1000.0 µM): 112%

**Q.** With CCCC(CCC)C(=O)O as the compound, how does the residual activity (GSK3B (human); compound 1.0 µM) read?
**A.** 74%

**Q.** And the residual activity (GSK3B (human); compound 10.0 µM)?
**A.** 79%

**Q.** And the residual activity (GSK3B (human); compound 50.0 µM)?
**A.** 76%

**Q.** And the residual activity (NEK7 (human))?
**A.** 99%

**Q.** What about the residual activity (SRPK1 (human); compound 1.0 µM) of the same compound?
**A.** 94%

**Q.** And the residual activity (SRPK1 (human); compound 10.0 µM)?
**A.** 107%

**Q.** And the residual activity (SRPK1 (human); compound 50.0 µM)?
**A.** 108%

**Q.** Which results are given for CCNc1nc(Nc2cc(F)c(C(=O)N3CCOCC3)cc2OC)ncc1C(F)(F)F?
**A.** residual activity (ABL1 (human); compound 1.0 µM): 102%; residual activity (ABL1 (human); compound 10.0 µM): 106%; residual activity (CDK9 CCNT1 (human); compound 1.0 µM): 96%; residual activity (CDK9 CCNT1 (human); compound 10.0 µM): 90%; residual activity (CSNK1G2 (human); compound 1.0 µM): 91%; residual activity (CSNK1G2 (human); compound 10.0 µM): 90%; residual activity (DDR2 (human); compound 1.0 µM): 97%; residual activity (DDR2 (human); compound 10.0 µM): 98%; residual activity (EIF2AK3 (human); compound 1.0 µM): 99%; residual activity (EIF2AK3 (human); compound 10.0 µM): 80%; residual activity (GSK3B (human); compound 1.0 µM): 90%; residual activity (GSK3B (human); compound 10.0 µM): 83%; residual activity (IRAK1 (human); compound 1.0 µM): 100%; residual activity (IRAK1 (human); compound 10.0 µM): 93%; residual activity (MAP4K3 (human); compound 1.0 µM): 69%; residual activity (MAP4K3 (human); compound 10.0 µM): 21%; residual activity (MAP4K5 (human); compound 1.0 µM): 109%; residual activity (MAP4K5 (human); compound 10.0 µM): 90%; residual activity (MAPK7 (human); compound 1.0 µM): 65%; residual activity (MAPK7 (human); compound 10.0 µM): 32%; residual activity ([1]; compound 1.0 µM): 99%; residual activity ([1]; compound 10.0 µM): 54%; residual activity (PDGFRA (human); compound 1.0 µM): 91%; residual activity (PDGFRA (human); compound 10.0 µM): 61%; residual activity ([2]; compound 1.0 µM): 71%; residual activity ([2]; compound 10.0 µM): 29%; residual activity (PRKCG (human); compound 1.0 µM): 108%; residual activity (PRKCG (human); compound 10.0 µM): 95%; residual activity (PTK6 (human); compound 1.0 µM): 57%; residual activity (PTK6 (human); compound 10.0 µM): 15%; residual activity (SIK2 (human); compound 1.0 µM): 66%; residual activity (SIK2 (human); compound 10.0 µM): 21%; residual activity (SIK3 (human); compound 1.0 µM): 110%; residual activity (SIK3 (human); compound 10.0 µM): 88%; residual activity (SRPK1 (human); compound 1.0 µM): 79%; residual activity (SRPK1 (human); compound 10.0 µM): 68%; residual activity (STK16 (human); compound 1.0 µM): 97%; residual activity (STK16 (human); compound 10.0 µM): 96%; residual activity (STK24 (human); compound 1.0 µM): 97%; residual activity (STK24 (human); compound 10.0 µM): 81%; residual activity (STK33 (human); compound 1.0 µM): 39%; residual activity (STK33 (human); compound 10.0 µM): 22%; residual activity (TEK (human); compound 1.0 µM): 100%; residual activity (TEK (human); compound 10.0 µM): 85%; residual activity (TESK1 (human); compound 1.0 µM): 104%; residual activity (TESK1 (human); compound 10.0 µM): 98%; residual activity ([3]; compound 1.0 µM): 110%; residual activity ([3]; compound 10.0 µM): 102%; residual activity (TLK1 (human); compound 1.0 µM): 104%; residual activity (TLK1 (human); compound 10.0 µM): 101%; residual activity (TSSK1B (human); compound 1.0 µM): 12%; residual activity (TSSK1B (human); compound 10.0 µM): 3%; residual activity (TTBK1 (human); compound 1.0 µM): 100%; residual activity (TTBK1 (human); compound 10.0 µM): 84%; residual activity (TTBK2 (human); compound 1.0 µM): 95%; residual activity (TTBK2 (human); compound 10.0 µM): 74%; residual activity (ULK1 (human); compound 1.0 µM): 98%; residual activity (ULK1 (human); compound 10.0 µM): 47%; residual activity (ULK2 (human); compound 1.0 µM): 92%; residual activity (ULK2 (human); compound 10.0 µM): 61%; residual activity (WNK1 (human); compound 1.0 µM): 103%; residual activity (WNK1 (human); compound 10.0 µM): 104%; residual activity (ZAP70 (human); compound 1.0 µM): 102%; residual activity (ZAP70 (human); compound 10.0 µM): 79%
